The numbers were not newly measured in patent US20220313611A1, “METHODS TO PREPARE DRY POWDERS USING SUSPENSION BASED THIN FILM FREEZING” (BOARD OF REGENTS, THE UNIVERSITY OF TEXAS SYSTEM, priority 2021, published 2022), which cites them from elsewhere.

As to `C=CC[C@@H]1/C=C(\C)C[C@H](C)C[C@H](OC)[C@H]2O[C@@](O)(C(=O)C(=O)N3CCCC[C@H]3C(=O)O[C@H](/C(C)=C/[C@@H]3CC[C@@H](O)[C@H](OC)C3)[C@H](C)[C@@H](O)CC1=O)[C@H](C)C[C@@H]2OC` [TAC, Tacrolimus], the solubility in water result is “practically insoluble in water”.
